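Five concentrations, 48 hours, 96-well plates. GI50 marks 50% less growth.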 Active and inactive are the calls of the source. No stated cut-off is given here; in the data, active = GI50 up to about 1.1 µM and inactive = higher. Where a SMILES comes first, the peptide text is derived from it. [ ]: non-standard residue; d: D form. Hiv = CC(C)[C@H](O)C(=O)O
Columns and labels:
Test in all cases: NCI tumour cell line growth inhibition, 48 h
[1] = tested on: A498
[2] = tested on: A549
[3] = tested on: CAKI-1
[4] = tested on: CCRF-CEM
[5] = tested on: COLO 205
[6] = tested on: EKVX
[7] = tested on: HCC 2998
[8] = tested on: IGROV-1
[9] = tested on: MDA-MB-435
[10] = tested on: Malme-3M
[11] = tested on: NCI-H226
[12] = tested on: NCI/ADR-RES
[13] = tested on: OVCAR-3
[14] = tested on: OVCAR-5
[15] = tested on: PC-3
[16] = tested on: RPMI-8226
[17] = tested on: RXF 393
[18] = tested on: SNB-19
[19] = tested on: BT-549

| SMILES | GI50 [1] | GI50 [2] | GI50 [3] | GI50 [4] | GI50 [5] | GI50 [6] | GI50 [7] | GI50 [8] | GI50 [9] | GI50 [10] | GI50 [11] | GI50 [12] | GI50 [13] | GI50 [14] | GI50 [15] | GI50 [16] | GI50 [17] | GI50 [18] | GI50 [19] |
| --- | --- | --- | --- | --- | --- | --- | --- | --- | --- | --- | --- | --- | --- | --- | --- | --- | --- | --- | --- |
| NC(Cc1ccccc1)C(=O)NC(Cc1ccccc1)NC(=O)C(Cc1c[nH]c2ccccc12)C(=O)O (stereo not drawn) | > 100 µM (inactive) | > 100 µM (inactive) | > 100 µM (inactive) | > 100 µM (inactive) | > 100 µM (inactive) | > 100 µM (inactive) | > 100 µM (inactive) | > 100 µM (inactive) | > 100 µM (inactive) | > 100 µM (inactive) | > 100 µM (inactive) | > 100 µM (inactive) | > 100 µM (inactive) | > 100 µM (inactive) | > 100 µM (inactive) | > 100 µM (inactive) | > 100 µM (inactive) | > 100 µM (inactive) |  |
| Clc1ncnc(Cl)c1Cl |  | > 100 µM (inactive) | > 100 µM (inactive) | > 100 µM (inactive) | > 100 µM (inactive) |  | > 100 µM (inactive) | > 100 µM (inactive) | > 100 µM (inactive) | > 100 µM (inactive) | > 100 µM (inactive) | > 100 µM (inactive) | > 100 µM (inactive) | > 100 µM (inactive) | > 100 µM (inactive) | 4.41 µM (inactive) | > 100 µM (inactive) | > 100 µM (inactive) |  |
| CC(=O)c1c[nH]cc1CO | > 10 µM (inactive) | > 10 µM (inactive) | > 10 µM (inactive) | > 10 µM (inactive) | > 10 µM (inactive) |  | > 10 µM (inactive) | > 10 µM (inactive) |  | > 10 µM (inactive) | > 10 µM (inactive) | > 10 µM (inactive) | > 10 µM (inactive) | > 10 µM (inactive) | > 10 µM (inactive) | > 10 µM (inactive) | > 10 µM (inactive) | > 10 µM (inactive) |  |
| O=C1c2ccccc2CC12CCC1(CC2)OCCO1 |  | > 100 µM (inactive) | > 100 µM (inactive) | > 100 µM (inactive) | > 100 µM (inactive) | > 100 µM (inactive) | > 100 µM (inactive) | > 100 µM (inactive) |  | 97.9 µM (inactive) | > 100 µM (inactive) | > 100 µM (inactive) |  | > 100 µM (inactive) | > 100 µM (inactive) | > 100 µM (inactive) | > 100 µM (inactive) | > 100 µM (inactive) | > 100 µM (inactive) |
| O=Cc1ccc2c(c1)CC1(Cc3ccccc3C1)C2 | 30.3 µM (inactive) | > 100 µM (inactive) |  | 7.78 µM (inactive) | 21.8 µM (inactive) | 15.3 µM (inactive) | 59 µM (inactive) | 20.5 µM (inactive) | 16.7 µM (inactive) | 18.2 µM (inactive) | 22.5 µM (inactive) | 26.5 µM (inactive) | 14.3 µM (inactive) | > 100 µM (inactive) | 25.9 µM (inactive) | 24.8 µM (inactive) | > 100 µM (inactive) |  |  |
| O=C(CSCC(=O)N/N=C/c1ccc(F)cc1)N/N=C/c1ccc(F)cc1 | 38.2 µM (inactive) | 54.8 µM (inactive) |  |  | > 100 µM (inactive) | > 100 µM (inactive) | 66.8 µM (inactive) | > 100 µM (inactive) |  | > 100 µM (inactive) | > 100 µM (inactive) | > 100 µM (inactive) |  | > 100 µM (inactive) | 66.2 µM (inactive) | 60.8 µM (inactive) | 85.1 µM (inactive) | > 100 µM (inactive) |  |
| CC(C)CC(O)P(=O)(O)O.NC1CCCCC1 (stereo not drawn) | > 100 µM (inactive) | > 100 µM (inactive) | > 100 µM (inactive) |  | > 100 µM (inactive) | > 100 µM (inactive) | > 100 µM (inactive) |  | > 100 µM (inactive) |  | > 100 µM (inactive) |  | > 100 µM (inactive) | > 100 µM (inactive) | > 100 µM (inactive) | > 100 µM (inactive) | > 100 µM (inactive) | > 100 µM (inactive) |  |
| CCCCCCCCCCCCCCCCCCOCC(CCP(=O)(CP(=O)(O)O)Oc1ccccc1)OCCCCCCCCCCCCCCCCCC (stereo not drawn) | > 100 µM (inactive) | > 100 µM (inactive) | > 100 µM (inactive) | > 100 µM (inactive) | > 100 µM (inactive) | > 100 µM (inactive) | > 100 µM (inactive) | > 100 µM (inactive) | > 100 µM (inactive) | > 100 µM (inactive) | > 100 µM (inactive) | > 100 µM (inactive) | > 100 µM (inactive) | > 100 µM (inactive) | > 100 µM (inactive) | > 100 µM (inactive) | > 100 µM (inactive) | > 100 µM (inactive) |  |
| CC(Nc1ncc2c(n1)-c1ccccc1OC2)C(=O)O (stereo not drawn) |  | > 100 µM (inactive) | 30.8 µM (inactive) | > 100 µM (inactive) | 35.6 µM (inactive) | 44.1 µM (inactive) |  | 25.2 µM (inactive) | > 100 µM (inactive) | > 100 µM (inactive) | 61.7 µM (inactive) | > 100 µM (inactive) | 27.9 µM (inactive) | > 100 µM (inactive) | > 100 µM (inactive) | 34.2 µM (inactive) | > 100 µM (inactive) | > 100 µM (inactive) |  |
| COP(=O)(OC)C(O)CC(C)C (stereo not drawn) | > 100 µM (inactive) | > 100 µM (inactive) | > 100 µM (inactive) |  | > 100 µM (inactive) | > 100 µM (inactive) | > 100 µM (inactive) |  | > 100 µM (inactive) |  | > 100 µM (inactive) |  | > 100 µM (inactive) | > 100 µM (inactive) | > 100 µM (inactive) | > 100 µM (inactive) | > 100 µM (inactive) | > 100 µM (inactive) |  |
| N#CC(C#N)=C/C=C/c1ccccc1[N+](=O)[O-] | > 10 µM (inactive) | > 10 µM (inactive) | 5.04 µM (inactive) | 7.57 µM (inactive) | 3.93 µM (inactive) | > 10 µM (inactive) | > 10 µM (inactive) | > 10 µM (inactive) |  | 3.73 µM (inactive) | > 10 µM (inactive) | 2.16 µM (inactive) | 4.98 µM (inactive) |  | 5.06 µM (inactive) | 3.19 µM (inactive) | 2.31 µM (inactive) | > 10 µM (inactive) |  |
| CCOC(=O)C(NC(=O)CC(C)C)(NC(C)C)C(F)(F)F (stereo not drawn) | > 100 µM (inactive) | > 100 µM (inactive) | > 100 µM (inactive) | > 100 µM (inactive) | > 100 µM (inactive) | > 100 µM (inactive) | > 100 µM (inactive) | > 100 µM (inactive) | > 100 µM (inactive) | > 100 µM (inactive) | > 100 µM (inactive) | > 100 µM (inactive) | > 100 µM (inactive) | > 100 µM (inactive) | > 100 µM (inactive) | > 100 µM (inactive) | > 100 µM (inactive) | > 100 µM (inactive) |  |
| O=C(OCCN1CCCCC1)C(c1ccccc1)C1(O)CCSCC1 (stereo not drawn) | > 100 µM (inactive) | > 100 µM (inactive) | > 100 µM (inactive) | > 100 µM (inactive) | > 100 µM (inactive) | > 100 µM (inactive) | > 100 µM (inactive) | > 100 µM (inactive) | > 100 µM (inactive) | > 100 µM (inactive) | > 100 µM (inactive) | > 100 µM (inactive) | > 100 µM (inactive) | > 100 µM (inactive) | > 100 µM (inactive) | > 100 µM (inactive) | > 100 µM (inactive) | > 100 µM (inactive) |  |
| CN1c2ccccc2C(=O)Nc2cnc(Cl)nc21 | 73.6 µM (inactive) | > 100 µM (inactive) | > 100 µM (inactive) | > 100 µM (inactive) | > 100 µM (inactive) | > 100 µM (inactive) | > 100 µM (inactive) | > 100 µM (inactive) | > 100 µM (inactive) | > 100 µM (inactive) | > 100 µM (inactive) | 82.6 µM (inactive) | > 100 µM (inactive) | > 100 µM (inactive) | > 100 µM (inactive) | > 100 µM (inactive) | > 100 µM (inactive) | 36.6 µM (inactive) |  |
| COc1ccc2c(c1)c1c3c(ccc4ncn2c43)N(CCO)CCN=1 | 0.215 µM (active) | 0.218 µM (active) | 0.247 µM (active) | 0.0476 µM (active) | 0.101 µM (active) | 0.33 µM (active) | 0.147 µM (active) | 2.02 µM (inactive) | 0.234 µM (active) | 0.187 µM (active) | 0.182 µM (active) | 0.334 µM (active) | 0.213 µM (active) | 0.245 µM (active) | 0.148 µM (active) | 0.281 µM (active) | 0.211 µM (active) | 0.234 µM (active) |  |
| CCOC(=O)c1sc2[n+](c1C)C(=O)/C(=C/c1ccc([N+](=O)[O-])cc1)S2 | > 100 µM (inactive) | 23.5 µM (inactive) | 15.1 µM (inactive) | > 100 µM (inactive) | 30.7 µM (inactive) |  | 17.2 µM (inactive) |  | 18 µM (inactive) |  | 28.3 µM (inactive) | 13.8 µM (inactive) | 9.08 µM (inactive) | 31.7 µM (inactive) | 18.9 µM (inactive) | 10.4 µM (inactive) | 29.8 µM (inactive) | 45.2 µM (inactive) |  |
| CC(C)[C@@H]1OC(=O)[C@@H](C)NC(=O)[C@@H]2CCCN2C1=O (cyclo([Hiv]-Pro-[dA])) | > 100 µM (inactive) | > 100 µM (inactive) | > 100 µM (inactive) | > 100 µM (inactive) | > 100 µM (inactive) | > 100 µM (inactive) | > 100 µM (inactive) | > 100 µM (inactive) | > 100 µM (inactive) | > 100 µM (inactive) | > 100 µM (inactive) | > 100 µM (inactive) | > 100 µM (inactive) | > 100 µM (inactive) | > 100 µM (inactive) |  | > 100 µM (inactive) | > 100 µM (inactive) |  |
